Assay results published in patent US20240208992A1, “MACROCYCLES AS CFTR MODULATORS” (Idorsia Pharmaceuticals Ltd, priority 2021, published 2024).

Each molecule was assayed against human F508del-CFTR (Homo sapiens, UniProt P13569, DEL508-508) (assay: F508del-CFTR cell surface expression (corrector activity), DiscoveRx ß-galactosidase complementation chemiluminescence assay in recombinant U2OS cell line). Conditions: EC50, F508del-CFTR cell surface expression, U2OS cell line, 16h compound incubation; geomean values.
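Note: U2OS cells co-expressing ProLink-tagged F508del-CFTR and a membrane-anchored enzyme acceptor, where more surface CFTR restores β-galactosidase activity measured by chemiluminescence.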

Chain of human F508del-CFTR (P13569 with tags, fused parts or gaps DEL508-508): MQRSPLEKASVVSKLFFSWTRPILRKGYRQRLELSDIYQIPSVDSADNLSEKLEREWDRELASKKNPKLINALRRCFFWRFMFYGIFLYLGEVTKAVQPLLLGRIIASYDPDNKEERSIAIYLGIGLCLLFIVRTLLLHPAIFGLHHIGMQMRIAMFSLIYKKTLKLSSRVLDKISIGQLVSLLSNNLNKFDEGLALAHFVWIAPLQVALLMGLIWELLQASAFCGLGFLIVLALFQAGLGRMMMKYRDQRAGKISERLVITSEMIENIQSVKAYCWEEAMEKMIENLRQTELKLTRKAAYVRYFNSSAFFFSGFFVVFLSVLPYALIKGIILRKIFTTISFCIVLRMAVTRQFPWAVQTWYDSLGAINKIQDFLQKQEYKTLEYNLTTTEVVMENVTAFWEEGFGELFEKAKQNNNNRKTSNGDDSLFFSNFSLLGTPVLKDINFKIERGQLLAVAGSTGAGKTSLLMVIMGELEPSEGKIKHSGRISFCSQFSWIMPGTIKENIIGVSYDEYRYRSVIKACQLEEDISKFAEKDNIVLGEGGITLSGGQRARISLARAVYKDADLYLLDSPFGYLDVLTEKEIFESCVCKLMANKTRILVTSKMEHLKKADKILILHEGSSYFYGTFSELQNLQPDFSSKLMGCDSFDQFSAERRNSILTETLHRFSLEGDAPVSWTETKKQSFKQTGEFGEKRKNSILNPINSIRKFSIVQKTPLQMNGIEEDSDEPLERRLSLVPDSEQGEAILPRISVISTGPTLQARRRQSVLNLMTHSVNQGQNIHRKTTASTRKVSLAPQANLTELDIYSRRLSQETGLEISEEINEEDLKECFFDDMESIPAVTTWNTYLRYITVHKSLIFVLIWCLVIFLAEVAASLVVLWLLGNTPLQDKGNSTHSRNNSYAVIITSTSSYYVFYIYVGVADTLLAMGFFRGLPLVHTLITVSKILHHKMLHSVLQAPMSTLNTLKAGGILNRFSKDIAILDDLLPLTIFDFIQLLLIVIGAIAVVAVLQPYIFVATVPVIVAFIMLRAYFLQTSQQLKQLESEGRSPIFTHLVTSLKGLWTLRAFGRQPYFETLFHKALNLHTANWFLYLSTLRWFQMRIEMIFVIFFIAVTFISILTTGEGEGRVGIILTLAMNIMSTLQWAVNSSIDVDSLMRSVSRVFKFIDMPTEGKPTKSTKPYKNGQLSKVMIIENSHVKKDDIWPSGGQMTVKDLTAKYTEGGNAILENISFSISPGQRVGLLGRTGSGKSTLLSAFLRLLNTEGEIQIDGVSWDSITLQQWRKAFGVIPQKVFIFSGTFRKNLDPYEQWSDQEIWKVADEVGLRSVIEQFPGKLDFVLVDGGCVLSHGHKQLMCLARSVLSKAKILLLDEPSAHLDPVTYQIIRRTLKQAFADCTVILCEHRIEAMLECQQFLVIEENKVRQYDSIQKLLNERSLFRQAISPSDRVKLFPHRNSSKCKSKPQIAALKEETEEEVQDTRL

EC50 | SMILES
270 nM | COc1cccc2c1C(=O)N[C@H](C(=O)NCCc1ccc3c(c1)OCCCO3)CC(=O)N(C)[C@@H](CC(C)C)C(=O)N(CCC1CCCCC1)CC(=O)N[C@H](Cc1ccccc1)CO2 (mixture of isomers) [Example 12, (3R,9S,13RS)-3-benzyl-7-(2-cyclohexylethyl)-N-(2-(3,4-dihydro-2H-benzo[b][1,4]dioxepin-7-yl)ethyl)-9-isobutyl-16-methoxy-10-methyl-5,8,11,15-tetraoxo-2,3,4,5,6,7,8,9,10,11,12,13,14,15-tetradecahydrobenzo[p][1]oxa[4,7,10,14]tetraazacycloheptadecine-13-carboxamide]
187 nM | COc1cccc2c1C(=O)N[C@H](C(=O)NCCc1ccc3c(c1)OCC3)CC(=O)N(C)[C@@H](CC(C)C)C(=O)N(CCC1CCCCC1)CC(=O)N[C@H](Cc1ccccc1)CO2 (mixture of isomers) [Example 15, (3R,9S,13RS)-3-benzyl-7-(2-cyclohexylethyl)-N-(2-(2,3-dihydrobenzofuran-6-yl)ethyl)-9-isobutyl-16-methoxy-10-methyl-5,8,11,15-tetraoxo-2,3,4,5,6,7,8,9,10,11,12,13,14,15-tetradecahydrobenzo[p][1]oxa[4,7,10,14]tetraazacycloheptadecine-13-carboxamide]
269 nM | COc1cccc2c1C(=O)N[C@H](C(=O)NCCc1nc3ccccc3o1)CC(=O)N(C)[C@@H](CC(C)C)C(=O)N(CCC1CCCCC1)CC(=O)N[C@H](Cc1ccccc1)CO2 (mixture of isomers) [Example 16, (3R,9S,13RS)-N-(2-(benzo[d]oxazol-2-yl)ethyl)-3-benzyl-7-(2-cyclohexylethyl)-9-isobutyl-16-methoxy-10-methyl-5,8,11,15-tetraoxo-2,3,4,5,6,7,8,9,10,11,12,13,14,15-tetradecahydrobenzo[p][1]oxa[4,7,10,14]tetraazacycloheptadecine-13-carboxamide]
991 nM | Cc1csc(CCNC(=O)[C@@H]2CC(=O)N(C)[C@@H](CC(C)C)C(=O)N3CCCC[C@@H]3C(=O)N[C@H](Cc3ccccc3)COc3ccc4ncn(C)c4c3C(=O)N2)n1 (mixture of isomers) [Example 23, (8RS,12S,18aR,21R)-21-benzyl-12-isobutyl-5,11-dimethyl-N-(2-(4-methylthiazol-2-yl)ethyl)-6,10,13,19-tetraoxo-6,7,8,9,10,11,12,13,16,17,18,18a,19,20,21,22-hexadecahydro-5H,15H-imidazo[4′,5′:5,6]benzo[1,2-p]pyrido[2,1-f][1]oxa[4,7,10,14]tetraazacycloheptadecine-8-carboxamide]
603 nM | CC(C)C[C@H]1C(=O)N2CCCC[C@@H]2C(=O)N[C@H](Cc2ccccc2)COc2ccc3ncn(C)c3c2C(=O)N[C@H](C(=O)NCCc2cccc(-n3nccn3)c2)CC(=O)N1C (mixture of isomers) [Example 28, (8RS,12S,18aR,21R)-N-(3-(2H-1,2,3-triazol-2-yl)phenethyl)-21-benzyl-12-isobutyl-5,11-dimethyl-6,10,13,19-tetraoxo-6,7,8,9,10,11,12,13,16,17,18,18a,19,20,21,22-hexadecahydro-5H,15H-imidazo[4′,5′:5,6]benzo[1,2-p]pyrido[2,1-f][1]oxa[4,7,10,14]tetraazacycloheptadecine-8-carboxamide]
759 nM | COc1cccc(CCNC(=O)[C@@H]2CC(=O)N(C)[C@@H](CC(C)C)C(=O)N(C)CC(=O)N[C@H](Cc3ccccc3)COc3cc4c(cc3C(=O)N2)OCO4)c1OC (mixture of isomers) [Example 151, (7R,13S,17RS)-7-benzyl-N-(2,3-dimethoxyphenethyl)-13-isobutyl-11,14-dimethyl-9,12,15,19-tetraoxo-6,7,8,9,10,11,12,13,14,15,16,17,18,19-tetradecahydro-[1,3]dioxolo[4′,5′:4,5]benzo[1,2-p][1]oxa[4,7,10,14]tetraazacycloheptadecine-17-carboxamide]
668 nM | COc1cc2c(cc1OC)C(=O)N[C@H](C(=O)NCCc1ccc3c(c1)CCO3)CC(=O)N(C)[C@@H](CC(C)C)C(=O)N(C)CC(=O)N[C@H](Cc1ccccc1)CO2 (mixture of isomers) [Example 152, (3R,9S,13RS)-3-benzyl-N-(2-(2,3-dihydrobenzofuran-5-yl)ethyl)-9-isobutyl-17,18-dimethoxy-7,10-dimethyl-5,8,11,15-tetraoxo-2,3,4,5,6,7,8,9,10,11,12,13,14,15-tetradecahydrobenzo[p][1]oxa[4,7,10,14]tetraazacycloheptadecine-13-carboxamide]

The next lines start with the molecule.

SMILES | EC50
COc1cccc2c1C(=O)N[C@H](C(=O)NCCc1ccc3c(c1)CCCO3)CC(=O)N(C)[C@@H](CC(C)C)C(=O)N(CCC1CCCCC1)CC(=O)N[C@H](Cc1ccccc1)CO2 (mixture of isomers) [Example 11, (3R,9S,13RS)-3-benzyl-N-(2-(chroman-6-yl)ethyl)-7-(2-cyclohexylethyl)-9-isobutyl-16-methoxy-10-methyl-5,8,11,15-tetraoxo-2,3,4,5,6,7,8,9,10,11,12,13,14,15-tetradecahydrobenzo[p][1]oxa[4,7,10,14]tetraazacycloheptadecine-13-carboxamide] | 182 nM
COc1cc2c(cc1OC)C(=O)N[C@H](C(=O)NCCc1ccc3c(c1)OCO3)CC(=O)N(C)[C@@H](CC(C)C)C(=O)N(CCC(C)(C)OC)CC(=O)N[C@H](Cc1ccccc1)CO2 (mixture of isomers) [Example 156, (3R,9S,13RS)-N-(2-(benzo[d][1,3]dioxol-5-yl)ethyl)-3-benzyl-9-isobutyl-17,18-dimethoxy-7-(3-methoxy-3-methylbutyl)-10-methyl-5,8,11,15-tetraoxo-2,3,4,5,6,7,8,9,10,11,12,13,14,15-tetradecahydrobenzo[p][1]oxa[4,7,10,14]tetraazacycloheptadecine-13-carboxamide] | 647 nM
CC(C)C[C@H]1C(=O)N(C[C@H]2CCCCO2)CC(=O)N[C@H](Cc2ccccc2)COc2ccc3ccccc3c2C(=O)N[C@H](C(=O)NCCc2ccc3c(c2)OCO3)CC(=O)N1C (mixture of isomers) [Example 162, (3RS,7S,13R)-N-(2-(benzo[d][1,3]dioxol-5-yl)ethyl)-13-benzyl-7-isobutyl-6-methyl-1,5,8,11-tetraoxo-9-(((R)-tetrahydro-2H-pyran-2-yl)methyl)-1,2,3,4,5,6,7,8,9,10,11,12,13,14-tetradecahydronaphtho[1,2-p][1]oxa[4,7,10,14]tetraazacycloheptadecine-3-carboxamide] | 472 nM
COc1cccc(CCNC(=O)[C@@H]2CC(=O)N(C)[C@@H](CC(C)C)C(=O)N(C[C@H]3CCCCO3)CC(=O)N[C@H](Cc3ccccc3)COc3ccc4ccccc4c3C(=O)N2)c1 (mixture of isomers) [Example 164, (3RS,7S,13R)-13-benzyl-7-isobutyl-N-(3-methoxyphenethyl)-6-methyl-1,5,8,11-tetraoxo-9-(((R)-tetrahydro-2H-pyran-2-yl)methyl)-1,2,3,4,5,6,7,8,9,10,11,12,13,14-tetradecahydronaphtho[1,2-p][1]oxa[4,7,10,14]tetraazacycloheptadecine-3-carboxamide] | 519 nM
COc1cccc2c1C(=O)N[C@H](C(=O)NCCc1ccc3c(c1)OCO3)CC(=O)N(C)[C@@H](CC1CC1)C(=O)N(CCC1CCCCC1)CC(=O)N[C@H](Cc1ccccc1)CO2 (mixture of isomers) [Example 274, (3R,9S,13RS)-N-(2-(benzo[d][1,3]dioxol-5-yl)ethyl)-3-benzyl-7-(2-cyclohexylethyl)-9-(cyclopropylmethyl)-16-methoxy-10-methyl-5,8,11,15-tetraoxo-2,3,4,5,6,7,8,9,10,11,12,13,14,15-tetradecahydrobenzo[p][1]oxa[4,7,10,14]tetraazacycloheptadecine-13-carboxamide] | 288 nM
CN1C(=O)C[C@@H](C(=O)NCCc2ccc3c(c2)OCO3)NC(=O)c2c(ccc3ccccc23)OC[C@@H](Cc2ccccc2)NC(=O)CN(C[C@@H]2CCCCO2)C(=O)[C@@H]1CC1CCCC1 (mixture of isomers) [Example 284, (3RS,7S,13R)-N-(2-(benzo[d][1,3]dioxol-5-yl)ethyl)-13-benzyl-7-(cyclopentylmethyl)-6-methyl-1,5,8,11-tetraoxo-9-(((S)-tetrahydro-2H-pyran-2-yl)methyl)-1,2,3,4,5,6,7,8,9,10,11,12,13,14-tetradecahydronaphtho[1,2-p][1]oxa[4,7,10,14]tetraazacycloheptadecine-3-carboxamide] | 337 nM
CN1C(=O)C[C@@H](C(=O)NCCc2ccc3c(c2)OCO3)NC(=O)c2c(ccc3ccccc23)OC[C@@H](Cc2ccccc2)NC(=O)CN(C[C@@H]2CCCCO2)C(=O)[C@@H]1CC1CCCCC1 (mixture of isomers) [Example 285, (3RS,7S,13R)-N-(2-(benzo[d][1,3]dioxol-5-yl)ethyl)-13-benzyl-7-(cyclohexylmethyl)-6-methyl-1,5,8,11-tetraoxo-9-(((S)-tetrahydro-2H-pyran-2-yl)methyl)-1,2,3,4,5,6,7,8,9,10,11,12,13,14-tetradecahydronaphtho[1,2-p][1]oxa[4,7,10,14]tetraazacycloheptadecine-3-carboxamide] | 239 nM
CN1C(=O)C[C@@H](C(=O)NCCc2ccc3c(c2)OCO3)NC(=O)c2c(ccc3ccccc23)OC[C@@H](Cc2ccccc2)NC(=O)CN(C[C@H]2CCCCO2)C(=O)[C@@H]1CC1CCCC1 (mixture of isomers) [Example 286, (3RS,7S,13R)-N-(2-(benzo[d][1,3]dioxol-5-yl)ethyl)-13-benzyl-7-(cyclopentylmethyl)-6-methyl-1,5,8,11-tetraoxo-9-(((R)-tetrahydro-2H-pyran-2-yl)methyl)-1,2,3,4,5,6,7,8,9,10,11,12,13,14-tetradecahydronaphtho[1,2-p][1]oxa[4,7,10,14]tetraazacycloheptadecine-3-carboxamide] | 177 nM

Same assay, conditions: U2OS, in relation to the Emax of the corrector lumacaftor (=100%); U2OS cell line, 16h compound incubation; arithmetic mean values

SMILES | Emax
COc1cc2c(cc1OC)C(=O)N[C@H](C(=O)NCCc1ccc3c(c1)OCO3)CC(=O)N(C)[C@@H](CC(C)C)C(=O)N(CCC(C)(C)OC)CC(=O)N[C@H](Cc1ccccc1)CO2 (mixture of isomers) [Example 156, (3R,9S,13RS)-N-(2-(benzo[d][1,3]dioxol-5-yl)ethyl)-3-benzyl-9-isobutyl-17,18-dimethoxy-7-(3-methoxy-3-methylbutyl)-10-methyl-5,8,11,15-tetraoxo-2,3,4,5,6,7,8,9,10,11,12,13,14,15-tetradecahydrobenzo[p][1]oxa[4,7,10,14]tetraazacycloheptadecine-13-carboxamide] | 123%
COc1cccc2c1C(=O)N[C@H](C(=O)NCCc1ccc3c(c1)OCO3)CC(=O)N(C)[C@@H](CC1CC1)C(=O)N(CCC1CCCCC1)CC(=O)N[C@H](Cc1ccccc1)CO2 (mixture of isomers) [Example 274, (3R,9S,13RS)-N-(2-(benzo[d][1,3]dioxol-5-yl)ethyl)-3-benzyl-7-(2-cyclohexylethyl)-9-(cyclopropylmethyl)-16-methoxy-10-methyl-5,8,11,15-tetraoxo-2,3,4,5,6,7,8,9,10,11,12,13,14,15-tetradecahydrobenzo[p][1]oxa[4,7,10,14]tetraazacycloheptadecine-13-carboxamide] | 186%
